The results in this text go back to patent publication US20240059698A1 (Accutar Biotechnology Inc., priority 2022, published 2024).

Common to all, as to format: cell-based
One assay deals with HCC827 cells. Put plainly: Cell growth inhibition (CellTiter-Glo), HCC827. The conditions noted are these: Homo sapiens, 72 h, 3 days. The protocol:
2. Cell Growth Inhibition for HCC827, HCC827-SVD, HCC827-ASV, HCC827-YVMA, and A431.
HCC827(ATCC), HCC827-SVD, HCC827-ASV, and HCC827-YVMA cells were seeded in 96-well plates at 5000 cells/well in 90 μL of RPMI growth medium containing 10% FBS and 1% Penicillin Streptomycin. A431 (ATCC) cells were seeded in 96-well plates at 5000 cells/well in 90 μL of DMEM growth medium containing 10% FBS and 1% Penicillin Streptomycin. Cells were incubated at 37° C. overnight and then administered with 10 μL 10× test compounds prepared in the growth medium at various concentrations. After administration of the compounds, cells were incubated at 37° C. for 3 days. Before the CellTiter-Glo assay, the plates were equilibrated at room temperature for approximately 30 minutes. 100 ul of CellTiter-Glo reagent (Promega) was added to each well. The plates were then incubated at room temperature for 10 minutes and luminescence was recorded by the EnSight® multimode plate reader (PerkinElmer). Table 7 listed selected compounds in cellular growth assay.

Assay [1] has as its system HCC827-SVD cells (human EGFR exon 20 insertion mutant D770_N771insSVD). Put plainly: Cell growth inhibition (CellTiter-Glo), HCC827-SVD. The settings on record: 72 h, 3 days. The essentials:
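Growth read by CellTiter-Glo luminescence after 3-day compound exposure at 37 °C. Engineered clonal HCC827 line (native EGFR deleted by CRISPR, mutant EGFR re-expressed) plated at 5000 cells/well in 10% FBS RPMI the night before dosing.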
On the technique in general: Cellular ATP, detected with luciferase, serves as a proxy for viable cell number.

The test system of assay [2] is HCC827-YVMA cells (human ERBB2 exon20 insertion mutant A775_G776ins YVMA). The assay can be described thus: Cell growth inhibition (CellTiter-Glo), HCC827-YVMA. The conditions noted are these: 72 h, HCC827-YVMA cells, 3 days, CellTiter-Glo, read-out: Cell growth inhibition, GI50 (nM) HCC827-YVMA. Summed up: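 Growth in RPMI with 10% FBS was measured by CellTiter-Glo luminescence after 3 days at 37 °C with test compounds across a concentration range. The single-clone HCC827 lines carry a lentiviral YVMA (ERBB2) or ASV (EGFR) exon 20 insertion, with endogenous EGFR removed via sgRNA/Cas9.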

The structures appear in SMILES notation.

By GI50 is commonly meant the concentration giving 50% growth inhibition.

Regarding `C=CC(=O)N1CCC(c2c[nH]c3ncnc(Nc4ccc(OCc5ncco5)c(Cl)c4)c23)CC1` [Compound 95, 1-(4-(4-((3-chloro-4-(oxazol-2-ylmethoxy)phenyl)amino)-7H-pyrrolo[2,3-d]pyrimidin-5-yl)piperidin-1-yl)prop-2-en-1-one], the GI50 (in the assay with HCC827 cells; in assay [1]; in assay [2]) was less than 50 nM throughout.
For `C=CC(=O)N1CCC(c2c[nH]c3ncnc(Nc4ccc(OCc5ccc(-c6ccccc6)nc5)cc4F)c23)CC1` [Compound 96, 1-(4-(4-((2-fluoro-4-((6-phenylpyridin-3-yl)methoxy)phenyl)amino)-7H-pyrrolo[2,3-d]pyrimidin-5-yl)piperidin-1-yl)prop-2-en-1-one], the GI50 was 200 to 1000 nM in the assay on HCC827 cells, greater than 1000 nM in assay [1] and 200 to 1000 nM in assay [2].
As to `C=CC(=O)N1CCC(c2c[nH]c3ncnc(Nc4ccc(OCc5ccnc(-c6ccccc6)c5)cc4F)c23)CC1` [Compound 97, 1-(4-(4-((2-fluoro-4-((2-phenylpyridin-4-yl)methoxy)phenyl)amino)-7H-pyrrolo[2,3-d]pyrimidin-5-yl)piperidin-1-yl)prop-2-en-1-one], the GI50 (with HCC827 cells; in assay [1]; in assay [2]) was 200 to 1000 nM in each case.
In the case of `C=CC(=O)N1CCC(c2c[nH]c3ncnc(Nc4ccc(OCc5cccc(C)n5)c(Cl)c4)c23)CC1` [Compound 98, 1-(4-(4-((3-chloro-4-((6-methylpyridin-2-yl)methoxy)phenyl)amino)-7H-pyrrolo[2,3-d]pyrimidin-5-yl)piperidin-1-yl)prop-2-en-1-one], the GI50 (in the assay with HCC827 cells; in assay [1]; in assay [2]) was less than 50 nM in each case.
Regarding `C=CC(=O)N1CCC(c2c[nH]c3ncnc(Nc4ccc(OCc5ccc(OC)cn5)c(Cl)c4)c23)CC1` [Compound 99, 1-(4-(4-((3-chloro-4-((5-methoxypyridin-2-yl)methoxy)phenyl)amino)-7H-pyrrolo[2,3-d]pyrimidin-5-yl)piperidin-1-yl)prop-2-en-1-one], the GI50 in the assay with HCC827 cells was 50 to 200 nM; in assay [1], 50 to 200 nM; in assay [2], less than 50 nM.
With `C=CC(=O)N1CCC(c2c[nH]c3ncnc(Nc4ccc(OCc5cc(C#N)ccn5)c(Cl)c4)c23)CC1` [Compound 100, 2-((4-((5-(1-acryloylpiperidin-4-yl)-7H-pyrrolo[2,3-d]pyrimidin-4-yl)amino)-2-chlorophenoxy)methyl)isonicotinonitrile], the 50% growth inhibitory concentration (GI50) (in the assay on HCC827 cells; in assay [1]; in assay [2]) was less than 50 nM in each case.
Consider `C=CC(=O)N1CCC(c2c[nH]c3ncnc(Nc4ccc(OCc5ccc(C#N)cn5)c(Cl)c4)c23)CC1` [Compound 101, 6-((4-((5-(1-acryloylpiperidin-4-yl)-7H-pyrrolo[2,3-d]pyrimidin-4-yl)amino)-2-chlorophenoxy)methyl)nicotinonitrile], for which the GI50 (in the assay on HCC827 cells; in assay [1]; in assay [2]) was 50 to 200 nM each time.
Regarding `C=CC(=O)N1CCC(c2c[nH]c3ncnc(Nc4ccc(OCc5cn6ccccc6n5)c(Cl)c4)c23)CC1` [Compound 102, 1-(4-(4-((3-chloro-4-(imidazo[1,2-a]pyridin-2-ylmethoxy)phenyl)amino)-7H-pyrrolo[2,3-d]pyrimidin-5-yl)piperidin-1-yl)prop-2-en-1-one], the GI50 in the assay with HCC827 cells is 50 to 200 nM; in assay [1], 50 to 200 nM; in assay [2], less than 50 nM.
In the case of `C=CC(=O)N1CCC(c2c[nH]c3ncnc(Nc4ccc(OCc5nc(C(F)(F)F)cs5)c(Cl)c4)c23)CC1` [Compound 103, 1-(4-(4-((3-chloro-4-((4-(trifluoromethyl)thiazol-2-yl)methoxy)phenyl)amino)-7H-pyrrolo[2,3-d]pyrimidin-5-yl)piperidin-1-yl)prop-2-en-1-one], the GI50 (with HCC827 cells; in assay [1]; in assay [2]) was 50 to 200 nM in each case.
`C=CC(=O)N1CCC(c2c[nH]c3ncnc(Nc4ccc(Oc5ccnc(Nc6ccccc6)c5)cc4F)c23)CC1` [Compound 104, 1-(4-(4-((2-fluoro-4-((2-(phenylamino)pyridin-4-yl)oxy)phenyl)amino)-7H-pyrrolo[2,3-d]pyrimidin-5-yl)piperidin-1-yl)prop-2-en-1-one]: the figures for the 50% growth inhibitory concentration (GI50) (in the assay on HCC827 cells; in assay [1]; in assay [2]) were 200 to 1000 nM, 50 to 200 nM and less than 50 nM, respectively.
In the case of `C=CC(=O)N1CCC(c2c[nH]c3ncnc(Nc4ccc(OCc5ccccn5)cc4F)c23)CC1` [Compound 105, 1-(4-(4-((2-fluoro-4-(pyridin-2-ylmethoxy)phenyl)amino)-7H-pyrrolo[2,3-d]pyrimidin-5-yl)piperidin-1-yl)prop-2-en-1-one], the GI50 (in the assay with HCC827 cells; in assay [1]; in assay [2]) was less than 50 nM in each case.
`C=CC(=O)N1CCC(c2c[nH]c3ncnc(Nc4ccc(OCc5ccccn5)c(Cl)c4F)c23)CC1` [Compound 106, 1-[4-[4-[3-chloro-2-fluoro-4-(2-pyridylmethoxy)anilino]-7H-pyrrolo[2,3-d]pyrimidin-5-yl]-1-piperidyl]prop-2-en-1-one]: the GI50 (in the assay on HCC827 cells; in assay [1]; in assay [2]) was less than 50 nM in each case.
Consider `C=CC(=O)N1CCC(c2c[nH]c3ncnc(Nc4ccc(Oc5ccnc(N6CC(C(F)(F)F)C6)c5)cc4F)c23)CC1` [Compound 107, 1-(4-(4-((2-fluoro-4-((2-(3-(trifluoromethyl)azetidin-1-yl)pyridin-4-yl)oxy)phenyl)amino)-7H-pyrrolo[2,3-d]pyrimidin-5-yl)piperidin-1-yl)prop-2-en-1-one], for which the values for the GI50 (in the assay on HCC827 cells; in assay [1]; in assay [2]) were greater than 1000 nM, 200 to 1000 nM and 50 to 200 nM, respectively.
Regarding `C=CC(=O)N1CCC(c2c[nH]c3ncnc(Nc4ccc(OCc5cnn(C(C)C)c5)c(Cl)c4)c23)CC1` [Compound 108, 1-(4-(4-((3-chloro-4-((1-isopropyl-1H-pyrazol-4-yl)methoxy)phenyl)amino)-7H-pyrrolo[2,3-d]pyrimidin-5-yl)piperidin-1-yl)prop-2-en-1-one], the GI50 in the assay with HCC827 cells is 200 to 1000 nM; in assay [1], greater than 1000 nM; in assay [2], greater than 1000 nM.
Take `C=CC(=O)N1CCC(c2c[nH]c3ncnc(Nc4ccc(Oc5ccnc(NC6CCC6)c5)cc4F)c23)CC1` [Compound 109, 1-[4-[4-[4-[[2-(cycloButylamino)-4-pyridyl]oxy]-2-fluoro-anilino]-7H-pyrrolo[2,3-d]pyrimidin-5-yl]-1-piperidyl]prop-2-en-1-one]: the GI50 with HCC827 cells was less than 50 nM; in assay [1] it was 50 to 200 nM; in assay [2] it was less than 50 nM.
As to `C=CC(=O)N1CCC(c2c[nH]c3ncnc(Nc4ccc(OCc5ccc(C(F)(F)F)cn5)c(Cl)c4)c23)CC1` [Compound 112, 1-(4-(4-((3-chloro-4-((5-(trifluoromethyl)pyridin-2-yl)methoxy)phenyl)amino)-7H-pyrrolo[2,3-d]pyrimidin-5-yl)piperidin-1-yl)prop-2-en-1-one], the values for the GI50 (with HCC827 cells; in assay [1]; in assay [2]) were 50 to 200 nM, 200 to 1000 nM and 50 to 200 nM, respectively.
As to `C=CC(=O)N1CCC(c2c[nH]c3ncnc(Nc4ccc(OCc5ccncn5)c(Cl)c4)c23)CC1` [Compound 114, 1-(4-(4-((3-chloro-4-(pyrimidin-4-ylmethoxy)phenyl)amino)-7H-pyrrolo[2,3-d]pyrimidin-5-yl)piperidin-1-yl)prop-2-en-1-one], the GI50 (in the assay with HCC827 cells; in assay [1]; in assay [2]) was less than 50 nM throughout.
